Measurements: US9259418B2 (priority 2008, dated 2016)

Experiments:
MPTP treated mice [1] = experiment: Locomotion activity by Rota rod in MPTP treated mice; format: in vivo; conditions: day 5, MPTP alone
Experimental: Saline-injected mice are used as control (naïve mice). Mice were treated according to the following plan:
FIGS. 3A-B show the locomotion activity as tested by Rota rod latency (FIG. 3A) and Rota rod distance (FIG. 3B) on day 5 of the study (5 drug administrations).

MPTP treated mice [2] = experiment: Striatal dopamine levels in MPTP treated mice (HPLC); format: in vivo; conditions: for dose required to restore dopamine levels when administered alone: MPTP challenged mice, data not shown
Experimental: Striatum tissue samples were homogenized in ice in 500 ul homogenization buffer (0.1M perchloric acid, 0.02% EDTA and 1% ETOH) using OMNI Tip homogenizing kit of OMNI International (intermediate speed, 3×10 seconds with 5 seconds intervals). The homogenates were sonicated for 5 minutes then centrifuged at 15,000 RPM at 4° C. for 15 min. The supernatants were transferred into fresh tubes and Dopamine content was analyzed by HPLC.
Saline-injected mice are used as control (naïve mice).

PC12 cells [3] = experiment: In vitro neuroprotection assay, serum-free medium induced apoptosis, MTT test; format: cell-based, rat; conditions: serum starved PC12 cells, drugs alone or as DRA + MAO inhibitor combination
Experimental: (§1) For neuroprotection experiment cells were plated (1 or 0.5×10^5 Cells per well) on poly-L-lysine (Sigma) coated 96 wells tissue culture plates. Twenty four hours after plating the medium was exchanged with fresh growth medium with or without the tested drugs in the absence or presence of stressor. Cell cytotoxicity was induced by either serum starvation or Methyl-4phenylpyridium (MPP^+), 250 uM and 125 uM for PC12 and SK cells respectively. Drugs were added in different concentration alone and in combination, 30 minutes prior to the insult for a subsequent 48 or 72 hours. Neuronal cell injury was evaluated by a colorimetric assay for mitochondrial function using the MTT test (Sigma). The MTT test is based on the conversion of MTT to blue formasan crystals by viable cells. 5 mg/ml MIT reagent was added to each well (1:10 final dilution in each well). Cells were incubated for 1 hour at 37° C. and 5% CO2. Excess MIT was removed, and remaining formasan crystals were dissolved in 50 ul DMSO and were quantified in Elisa reader. The wavelength of the measurement of formasan product was 550 nm and the reference wavelength was 620 nm.
(§2) (a) PC12 and SK-N-SH Cells were incubated with 3 different concentrations of MPP+(125, 250, and 500 μM) or in growth medium lacking serum for 48 and 72 hours.
(§3) (b) Various drug combinations at various drug ratios as stated above were tested. The concentrations used were as follows: ropinirole, 400 μM, 200 μM, 100 μM, 50 μM; rasagiline, 400 μM, 200 μM, 100 μM, 50 μM, 10 μM; pramipexole, 400 μM, 200 μM, 100 μM, 50 μM; selegiline, 100, 50 μM, 10 μM, 1. Cell protection was detected by MTT.
(§4) The combinations used to treat serum-free medium induced apoptosis were ropinirole, 200 μM: rasagiline, 50 μM; ropinirole, 100 μM: rasagiline, 10 μM (FIG. 1A); pramipexole, 200 μM selegiline, 50 μM; pramipexole, 100 μM: selegiline, 10 μM (FIG. 1B); ropinirole, 200 μM: selegiline, 50 μM; and ropinirole, 100 μM: selegiline, 10 μM (FIG. 1C). […]

PC12 cells [4] = experiment: In vitro neuroprotection assay, MPP+ induced apoptosis, MTT test; format: cell-based, rat; conditions: MPP+ treated PC12 cells, drugs alone or as DRA + MAO inhibitor combination
Experimental: as §1, §2, §3, §4

| SMILES | dose required to restore dopamine levels when administered alone (MPTP treated mice [2]) | neuroprotection effect / cell survival (% viable cells) (PC12 cells [3]) | neuroprotection effect / cell survival (% viable cells) (PC12 cells [4]) | further results |
| --- | --- | --- | --- | --- |
| CN1CC=C(c2ccccc2)CC1 [MPTP, N-methyl-4-phenyl-1,2,3,6-tetrahydropyridine] | – | – | – | decrease in locomotion activity (MPTP treated mice [1]): about 30%; depletion in dopamine levels relative to naïve mice (MPTP treated mice [2]; MPTP treatment alone): over 70% |
| CCCN[C@H]1CCc2nc(N)sc2C1 [pramipexole] | higher than 1 mg/kg | – | – | – |
| C#CCN[C@@H]1CCc2ccccc21 [rasagiline] | at least 0.5 mg/kg | the effect on neuroprotection was minor | the effect on neuroprotection was minor | increase in dopamine levels (MPTP treated mice [2]; high doses alone: 0.1 mg/kg rasagiline, 1 mg/kg pramipexole): significant but small increase; restoration of dopamine levels (MPTP treated mice [2]; low doses: rasagiline 0.05 mg/kg, pramipexole 0.5 mg/kg, alone or combined): did not cause a significant restoration of dopamine levels |
| CCCN(CCC)CCc1cccc2c1CC(=O)N2 [ropinirole] | – | the effect on neuroprotection was minor | the effect on neuroprotection was minor | – |
| C#CCN(C)[C@H](C)Cc1ccccc1 [selegiline] | – | the effect on neuroprotection was minor | the effect on neuroprotection was minor | – |
